Measured values reported in patent publication US9573910B2, “Oxazolidinone antibacterial compound” (Lee Pharma Limited, priority 2013, dated 2017).
Where two headings read alike, the source gives them in different places.

How the values were obtained:
[1] = tested on: S. maltophilia; experiment: Susceptibility test profile for commercially available antibiotics; assay type: cell-based, Stenotrophomonas maltophilia
Experimental: Anti bacterial evaluation of compound-I was done against Stenotrophomonas maltophilia on following parameters— • f. Agar-plate assay for different concentrations (10, 50, 100, 150 μg) • g. MIC studies • 1. With different concentrations (1000 to 5 μg/ml-˜10 different concentrations) • 2. Different time periods (4 to 32 hrs—8 different time intervals) • h. Mode of action with relation to survivability of organism • 1. Cidal/static with concentration and incubation time based) • 2. Evaluation by colony counting/dye based • i. Susceptibility test (evaluation of >40 antibiotics of different nature) • j. Antibacterial potential studies with other infectious bacteria (˜20 different strains) Results Agar-Plate Assay
Susceptibility Test Profile of S. maltophilia for Different Antibiotics (FIG. 10)

[2] = tested on: B. megatherium; assay type: cell-based
[3] = tested on: S. maltophilla; assay type: cell-based
[4] = tested on: S. paratyphi
[5] = tested on: B. subtilis; assay type: cell-based
[6] = tested on: E. coli; assay type: cell-based
[7] = tested on: P. mirabilis; assay type: cell-based
[8] = tested on: S. mutans; assay type: cell-based
[9] = tested on: Lysinobacillus; assay type: cell-based
[10] = tested on: P. putida; assay type: cell-based
[11] = tested on: B. circulans; assay type: cell-based
[12] = tested on: P. aeruginosa; assay type: cell-based
[13] = tested on: M. luteus; assay type: cell-based
[14] = tested on: B. cereus (1); assay type: cell-based
[15] = tested on: S. typhi; assay type: cell-based
[16] = tested on: K. pneumonia; assay type: cell-based
[17] = tested on: B. sphaericus; assay type: cell-based
[18] = tested on: B. cereus (2); assay type: cell-based
[19] = tested on: P. vulgaris; assay type: cell-based
[20] = tested on: B. cereus (3); assay type: cell-based
[21] = tested on: Stenotrophomonas maltophilia; experiment: Agar plate assay, zone of growth inhibition; assay type: cell-based; conditions: for zone of inhibition at 50 µg/disc: Stenotrophomonas maltophilia, read-out: Zone of growth inhibition in mm; for Activity against S. maltophilia (in words): agar plate
Experimental: To evaluate the same, 0 to 250 μg concentration range used for agar plate assay. Two percent agar plates were prepared and 24 hours grown S. maltophilia was spread on agar plate and incubated at 4° C. After 30 min, the agar plates consisting of S. maltophilia were brought to sterile environment at room temperature and using sterile borer wells were developed. […] After 24 hours of incubation at 37° C., the zone of inhibition was measured.

[22] = tested on: B. sterothemophilus; assay type: cell-based

CCC[C@@H]1C[C@@H](C(=O)N[C@@H]([C@H]2O[C@H](SC)[C@H](O)[C@@H](O)[C@H]2O)[C@@H](C)O)N(C)C1 [Lincomycin]
Zone (mm) ([1]; Quantity 2 μg): Resistant

Penicillin
Zone (mm) ([1]; Quantity 10 μg): 6 mm

CN[C@H](CC(C)C)C(=O)N[C@H]1C(=O)N[C@@H](CC(N)=O)C(=O)N[C@H]2C(=O)N[C@H]3C(=O)N[C@H](C(=O)N[C@H](C(=O)O)c4cc(O)cc(O)c4-c4cc3ccc4O)[C@H](O)c3ccc(c(Cl)c3)Oc3cc2cc(c3O[C@@H]2O[C@H](CO)[C@@H](O)[C@H](O)[C@H]2O[C@H]2C[C@](C)(N)[C@H](O)[C@H](C)O2)Oc2ccc(cc2Cl)[C@H]1O [Vancomycin]
Zone of growth inhibition in mm [2]: 27 mm | Zone of growth inhibition in mm [3]: 00 mm | Zone of growth inhibition in mm [4]: 25 mm | Zone of growth inhibition in mm [5]: 25 mm | Zone of growth inhibition in mm [6]: 25 mm | Zone of growth inhibition in mm [7]: 27 mm | Zone of growth inhibition in mm [8]: 30 mm | Zone of growth inhibition in mm [9]: 30 mm | Zone of growth inhibition in mm [10]: 00 mm | Zone of growth inhibition in mm [11]: 27 mm | Zone of growth inhibition in mm [12]: 00 mm | Zone of growth inhibition in mm [13]: 32 mm | Zone of growth inhibition in mm [14]: 00 mm | Zone of growth inhibition in mm [15]: 14 mm | Zone of growth inhibition in mm [16]: 25 mm | Zone of growth inhibition in mm [17]: 12 mm | Zone of growth inhibition in mm [18]: 27 mm | Zone of growth inhibition in mm [19]: 00 mm | Zone of growth inhibition in mm [20]: 32 mm | zone of inhibition at 50 µg/disc [21]: 0 mm | Activity against S. maltophilia (in words) [21]: not inhibitory | Zone of growth inhibition in mm [22]: 00 mm

CC[C@H]1OC(=O)[C@H](C)[C@@H](O[C@H]2C[C@@](C)(OC)[C@@H](O)[C@H](C)O2)[C@H](C)[C@@H](O[C@@H]2O[C@H](C)C[C@H](N(C)C)[C@H]2O)[C@](C)(OC)C[C@@H](C)C(=O)[C@H](C)[C@@H](O)[C@]1(C)O [Clarithromycin]
Zone (mm) ([1]; Quantity 15 μg): Resistant

O=C1OCCN1/N=C/c1ccc([N+](=O)[O-])o1 [Furazolidone]
Zone (mm) ([1]; Quantity 50 μg): Resistant

Gentamicin
Zone (mm) ([1]; Quantity 10 μg): 7 mm

CCn1cc(C(=O)O)c(=O)c2ccc(C)nc21 [Nalidixic]
Zone (mm) ([1]; Quantity 30 μg): 7 mm

CCN[C@@H]1C[C@H](N)[C@@H](O[C@H]2OC(CN)=CC[C@H]2N)[C@H](O)[C@H]1O[C@H]1OC[C@](C)(O)[C@H](NC)[C@H]1O.CCN[C@@H]1C[C@H](N)[C@@H](O[C@H]2OC(CN)=CC[C@H]2N)[C@H](O)[C@H]1O[C@H]1OC[C@](C)(O)[C@H](NC)[C@H]1O.O=S(=O)(O)O.O=S(=O)(O)O.O=S(=O)(O)O.O=S(=O)(O)O.O=S(=O)(O)O [Netillin(Netilmicin sulphate), Netilmicin sulphate]
Zone (mm) ([1]; Quantity 30 μg): 7 mm

CC(=O)NC[C@H]1CN(c2ccc(N3CCOCC3)c(F)c2)C(=O)O1 [Linezolid]
Zone of growth inhibition in mm [2]: 37 mm | Zone of growth inhibition in mm [3]: 00 mm | Zone of growth inhibition in mm [4]: 00 mm | Zone of growth inhibition in mm [5]: 40 mm | Zone of growth inhibition in mm [6]: 35 mm | Zone of growth inhibition in mm [7]: 35 mm | Zone of growth inhibition in mm [8]: 40 mm | Zone of growth inhibition in mm [9]: 40 mm | Zone of growth inhibition in mm [10]: 00 mm | Zone of growth inhibition in mm [11]: 38 mm | Zone of growth inhibition in mm [12]: 00 mm | Zone of growth inhibition in mm [13]: 45 mm | Zone of growth inhibition in mm [14]: 00 mm | Zone of growth inhibition in mm [15]: 40 mm | Zone of growth inhibition in mm [16]: 35 mm | Zone of growth inhibition in mm [17]: 30 mm | Zone of growth inhibition in mm [18]: 35 mm | Zone of growth inhibition in mm [19]: 00 mm | Zone of growth inhibition in mm [20]: 45 mm | zone of inhibition at 50 µg/disc ([21]; S. maltophilia, agar plates, 50 μg of each compound dissolved in DMSO): 0 mm | Activity against S. maltophilia (in words) [21]: not inhibitory | Zone of growth inhibition in mm [22]: 00 mm

Teicoplanin
Zone (mm) ([1]; Quantity 30 μg): 4 mm
